From PubChem BioAssay AID1259411 (Chemical Carcinogenesis Research Information System (CCRIS), 2018) come the findings set out here.

Active and inactive are the calls of the source. The rule behind the calls is not given here.

This data set has as its system rodent carcinogenicity bioassays, tumor incidence. Description: CCRIS carcinogenicity studies. The method, boiled down:
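NCI-built, expert-reviewed records of carcinogenicity and related test outcomes (mutagenicity, tumor promotion/inhibition) compiled from published and report sources, historical span 1985-2011, not updated.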

On to `ClC(Cl)=C(Cl)Cl`, for which the carcinogen call reads like this: (Species: MOUSE, Strain/Sex: B6C3F1/FEMALE, Route: GAVAGE, Dose: 0, 386, 772 MG/KG, TWA FOR 78 WKS, Dose: 0, 386, 772 MG/KG, TWA FOR 78 WKS, Tumor Site: Type of Lesion: LIVER: HEPATOCELLULAR CARCINOMA) “active; positive”; (Species: MOUSE, Strain/Sex: B6C3F1/FEMALE, Route: INHALATION, Dose: 0, 100, 200 PPM 6 HR/D, 5 D/WK FOR 103 WK, Dose: 0, 100, 200 PPM 6 HR/D, 5 D/WK FOR 103 WK, Tumor Site: Type of Lesion: LIVER: HEPATOCELLULAR CARCINOMA, HEPATOCELLULAR ADENOMA OR CARCINOMA) “active; positive”; (Species: MOUSE, Strain/Sex: B6C3F1/MALE, Route: GAVAGE, Dose: 0, 536, 1072 MG/KG, TWA FOR 78 WKS, Dose: 0, 536, 1072 MG/KG, TWA FOR 78 WKS, Tumor Site: Type of Lesion: LIVER: HEPATOCELLULAR CARCINOMA) “active; positive”; (Species: MOUSE, Strain/Sex: B6C3F1/MALE, Route: INHALATION, Dose: 0, 100, 200 PPM 6 HR/D, 5 D/WK FOR 103 WK, Dose: 0, 100, 200 PPM 6 HR/D, 5 D/WK FOR 103 WK, Tumor Site: Type of Lesion: LIVER: HEPATOCELLULAR ADENOMA, HEPATOCELLULAR CARCINOMA) “active; positive”; (Species: RAT, Strain/Sex: F344/FEMALE, Route: INHALATION, Dose: 0, 200, 400 PPM 6 HR/D, 5 D/WK FOR 103 WK, Dose: 0, 200, 400 PPM 6 HR/D, 5 D/WK FOR 103 WK, Tumor Site: Type of Lesion: HEMATOPOIETIC SYSTEM: MONONUCLEAR CELL LEUKEMIA) “active; positive”; (Species: RAT, Strain/Sex: F344/MALE, Route: INHALATION, Dose: 0, 200, 400 PPM 6 HR/D, 5 D/WK FOR 103 WK, Dose: 0, 200, 400 PPM 6 HR/D, 5 D/WK FOR 103 WK, Tumor Site: Type of Lesion: HEMATOPOIETIC SYSTEM: MONONUCLEAR CELL LEUKEMIA) “active; positive”.
`CC(=O)Nc1ccc(N=Nc2cc(C)ccc2O)cc1`: the carcinogen call (Species: MOUSE, Strain/Sex: B6C3F1/FEMALE, Route: ORAL, Dose: 0, 2500, 5000 PPM IN DIET, Dose: 0, 2500, 5000 PPM IN DIET, Tumor Site: Type of Lesion: LIVER: HEPATOCELLULAR ADENOMA) is “active; positive”; the carcinogen call (Species: MOUSE, Strain/Sex: B6C3F1/MALE, Route: ORAL, Dose: 0, 2500, 5000 PPM IN DIET, Dose: 0, 2500, 5000 PPM IN DIET) is “inactive; negative”; the carcinogen call (Species: RAT, Strain/Sex: F344/FEMALE, Route: ORAL, Dose: 0, 5000, 10000 PPM IN DIET, Dose: 0, 5000, 10000 PPM IN DIET) is “inactive; negative”; the carcinogen call (Species: RAT, Strain/Sex: F344/MALE, Route: ORAL, Dose: 0, 5000, 10000 PPM IN DIET, Dose: 0, 5000, 10000 PPM IN DIET, Tumor Site: Type of Lesion: LIVER: NEOPLASTIC NODULE) was “active; positive”.
For `Cc1cccc(Nc2cc(Cl)nc(SCC(=O)O)n2)c1C`, the carcinogen call (Species: MOUSE, Strain/Sex: STRAIN-CS/MALE, Route: ORAL, Dose: 0.1% (W/W) IN DIET FOR 6 MO THEN 0.05% IN DIET FOR 8.5 MO, Tumor Site: Type of Lesion: LIVER: HEPATOCELLULAR CARCINOMA) is “active; positive”; the carcinogen call (Species: RAT, Strain/Sex: CD-1/MALE, Route: ORAL, Dose: 0, 50 PPM IN DIET FOR 43 WK FOLLOWED BY 25 PPM IN FEED FOR 61 WK (STUDY DURATION: 2 YR), Tumor Site: Type of Lesion: LIVER: ADENOMA, ADENOMA OR CARCINOMA, TESTES: LEYDIG CELL ADENOMA, PANCREAS: ACINAR CELL ADENOMA OR CARCINOMA, Tumor Site: Type of Lesion: LIVER: ADENOMA, ADENOMA OR CARCINOMA, TESTES: LEYDIG CELL ADENOMA, PANCREAS: ACINAR CELL ADENOMA OR CARCINOMA) was “active; positive”; the carcinogen call (Species: RAT, Strain/Sex: F344/MALE, Route: ORAL, Dose: 0, 0.05, 0.10% IN DIET STARTED AT 2 MO OF AGE FOR STUDY DURATION (STUDY DURATION: 22 WK), Dose: 0, 0.05, 0.10% IN DIET STARTED AT 2 MO OF AGE FOR STUDY DURATION (STUDY DURATION: 22 WK), Tumor Site: Type of Lesion: LIVER: HEPATOCELLULAR CARCINOMA, HEPATOCELLULAR ADENOMA) was “active; positive”; the carcinogen call (Species: RAT, Strain/Sex: F344/MALE, Route: ORAL, Dose: 0.00, 0.05, 0.10% IN DIET STARTED AT 15 MO OF AGE FOR STUDY DURATION (STUDY DURATION: 22 WK), Dose: 0.00, 0.05, 0.10% IN DIET STARTED AT 15 MO OF AGE FOR STUDY DURATION (STUDY DURATION: 22 WK), Tumor Site: Type of Lesion: LIVER: HEPATOCELLULAR CARCINOMA, HEPATOCELLULAR ADENOMA) was “active; positive”; the carcinogen call (Species: RAT, Strain/Sex: F344/MALE, Route: ORAL, Dose: 0, 0.1% IN DIET FOR 22 WK (STUDY DURATION: 22 WK)) is “inactive; negative”; the carcinogen call (Species: RAT, Strain/Sex: F344/MALE, Route: ORAL, Dose: 0, 0.1% IN DIET FOR 22 WK FOLLOWED BY BASAL DIET UNTIL TERMINATION AT 37, 52, OR 104 WK, RESPECTIVELY (STUDY DURATION: 3) was “inactive; negative”. Also, the carcinogen call was “active; positive” (Species: RAT, Strain/Sex: F344/MALE, Route: ORAL, Dose: 0, 0.1% IN DIET FOR 37 WK (STUDY DURATION: 37 WK), Tumor Site: Type of Lesion: LIVER: HEPATOCELLULAR ADENOMA); “inactive; negative” (Species: RAT, Strain/Sex: F344/MALE, Route: ORAL, Dose: 0, 0.1% IN DIET FOR 37 WK FOLLOWED BY BASAL DIET UNTIL TERMINATION AT 52 OR 104 WK (STUDY DURATION: 52 OR 104 WK)); “active; positive” (Species: RAT, Strain/Sex: F344/MALE, Route: ORAL, Dose: 0, 0.1% IN DIET FOR 52 WK (STUDY DURATION: 52 WK), Tumor Site: Type of Lesion: LIVER: HEPATOCELLULAR ADENOMA, HEPATOCELLULAR CARCINOMA); “active; positive” (Species: RAT, Strain/Sex: F344/MALE, Route: ORAL, Dose: 0, 0.1% IN DIET FOR 52 WK FOLLOWED BY BASAL DIET UNTIL TERMINATION AT 104 WK (STUDY DURATION: 104 WK), Tumor Site: Type of Lesion: LIVER: HEPATOCELLULAR ADENOMA OR CARCINOMA); “active; positive” (Species: RAT, Strain/Sex: F344/MALE, Route: ORAL, Dose: 0, 0.1% IN DIET FOR 78 WK (STUDY DURATION: 78 WK), Tumor Site: Type of Lesion: LIVER: NEOPLASM); “active; positive” (Species: RAT, Strain/Sex: F344/MALE, Route: ORAL, Dose: 0.1% (W/W) IN DIET FOR 16 MO, Tumor Site: Type of Lesion: LIVER: HEPATOCELLULAR CARCINOMA). Also, the carcinogen call (Species: RAT, Strain/Sex: F344/MALE, Route: ORAL, Dose: 0.1% IN DIET FOR 11 WK FOLLOWED BY CONTROL DIET FOR DURATION OF STUDY (STUDY DURATION: 56 WK)) was “inactive; negative”; the carcinogen call (Species: RAT, Strain/Sex: F344/MALE, Route: ORAL, Dose: 0.1% IN DIET FOR 43 WK (STUDY DURATION: 56 WK), Tumor Site: Type of Lesion: LIVER: HEPATOCELLULAR CARCINOMA) was “active; positive”; the carcinogen call (Species: RAT, Strain/Sex: F344/MALE, Route: ORAL, Dose: 0.1% IN DIET FOR 54 WK (STUDY DURATION: 56 WK), Tumor Site: Type of Lesion: LIVER: HEPATOCELLULAR CARCINOMA) is “active; positive”; the carcinogen call (Species: RAT, Strain/Sex: F344/MALE, Route: ORAL, Dose: 0.2% (W/W) IN DIET FOR 65 WK, Tumor Site: Type of Lesion: LIVER: HEPATOCELLULAR CARCINOMA) was “active; positive”.
On to `CC1CN(N=O)CCC1=O` (stereo not drawn), for which the carcinogen call (Species: RAT, Strain/Sex: F344/FEMALE, Route: ORAL, Dose: 0, 80 ML OF SOLUTION OF 126 MG/L IN NEUTRAL DEIONIZED DRINKING WATER 5 D/WK FOR 26 WK (STUDY DURATION: 40 WK), Tumor Site: Type of Lesion: NASAL CAVITY: SQUAMOUS CELL CARCINOMA, TONGUE: TUMOR, FORESTOMACH: TUMOR, ESOPHAGUS: TUMOR, TRACHEA: TUMOR, Tumor Site: Type of Lesion: NASAL CAVITY: SQUAMOUS CELL CARCINOMA, TONGUE: TUMOR, FORESTOMACH: TUMOR, ESOPHAGUS: TUMOR, TRACHEA: TUMOR) is “active; positive”.
Turning to `C/C=C/Cl`, where the note is “Species: MOUSE, Strain/Sex: ICR/FEMALE, Route: GAVAGE, Dose: 1.0 MG IN 0.1 ML TRIOCTANOIN 1/WK, Tumor Site: Type of Lesion: FORESTOMACH: SQUAMOUS CELL CARCINOMA”, the carcinogen call is “active; positive”.
